# System: A549 cells
# Assay: MTT assay, percent survival of A549 cells
# Format: cell-based
# Details: A549
# Protocol: 1. Prepare a suspension of A549 cells at 2×10^5 cells per mL in supplemented DMEM/F12 growth medium.
# 2. Plate 2×10^4 cells per well in a 96 well cell culture plate by adding 100 μL of stock suspension to each well.
# 3. For each platinum compound (already in solution), prepare a readily usable stock solution in DMEM/F12 medium.
# 4. For each compound generate triplicate trials of 0, 10, 20, 30, 40, 50, 60, and 70 μM concentration. This is achieved in situ by adding appropriate volumes of stock solution to each well along with the volume of untreated medium necessary to generate the desired concentration in a final volume of 200 μL.
# 5. Gently agitate plates to mix contents. Incubate at 37° C., 7% CO2 for 45 hours.
# 6. Add 20 μL of 5 mg/mL MTT solution (in PBS) to each well.
# 7. Gently agitate plates to mix contents and incubate an additional 3 hours to allow product development.
# 8. Remove plates from incubator and agitate to cause settling of formazan product.
# 9. Aspirate out liquid contents of each well using needle and syringe and discard.
# 10. Add 200 μL DMSO to each well to dissolve formazan product.
# 11. Agitate plates until all of the formazan product is in solution and no purple crystals remain on the bottom surface of the wells.
# 12. Read the absorbance of each well at […] using Varian software for Cary 50 UV-vis Spectrophotometer with fiber optic probe accessory.
# (§1) MTT assays are used for the quantitative determination of cellular proliferation and activation and for the quantitation of in vitro tumor cell sensitivity to anti-cancer compounds. The assay is based on the cleavage of the yellow tetrazolium salt MTT into purple colored formazan by metabolically active cells. Solubilized formazan product can be photometrically quantitated using an ELISA plate reader. A decrease in the number of living cells results in a decrease in total metabolic activity which leads to a decrease in color formation. Platinum complexes of the present invention were tested in MTT assays using A549 cells to determine anti-cancer cell activity. […] FIGS. 1, 2, and 4 show percent survival versus platinum complex concentration in graphical form.
# as §1, with “FIGS. 8, 9,” for “FIGS. 1, 2,”, “and 11” for “and 4”
molecule,measurement,setting,value
Safranin,Average Absorbance,"Table 9, 10 μM",0.4933
same,Percent Survival,"Table 9, 10 μM",77.35%
same,Average Absorbance,"Table 9, 20 μM",0.4394
same,Percent Survival,"Table 9, 20 μM",68.9%
same,Average Absorbance,"Table 9, 30 μM",0.2197
same,Percent Survival,"Table 9, 30 μM",34.46%
same,Average Absorbance,"Table 9, 40 μM",0.07453
same,Percent Survival,"Table 9, 40 μM",11.69%
same,Average Absorbance,"Table 9, 50 μM",0.05293
same,Percent Survival,"Table 9, 50 μM",8.301%
same,Average Absorbance,"Table 9, 60 μM",0.0432
same,Percent Survival,"Table 9, 60 μM",6.775%
same,Average Absorbance,"Table 9, 70 μM",0.05447
same,Percent Survival,"Table 9, 70 μM",8.541%
"N.N.[Cl][Pt][Cl] [Cis-Pt, Cis-diammineoplatinum(II) dichloride, reference compound]",Average Absorbance,"Table 1, 10 μM",2.3196
same,Percent Survival,"Table 1, 10 μM",98.2423%
same,Average Absorbance,"Table 1, 20 μM",2.3228
same,Percent Survival,"Table 1, 20 μM",98.3779%
same,Average Absorbance,"Table 1, 30 μM",2.3526
same,Percent Survival,"Table 1, 30 μM",99.6400%
same,Average Absorbance,"Table 1, 40 μM",2.1315
same,Percent Survival,"Table 1, 40 μM",90.2757%
same,Average Absorbance,"Table 1, 50 μM",1.8447
same,Percent Survival,"Table 1, 50 μM",78.1288%
same,Average Absorbance,"Table 1, 60 μM",1.1039
same,Percent Survival,"Table 1, 60 μM",46.7536%
same,Average Absorbance,"Table 1, 70 μM",0.7118
same,Percent Survival,"Table 1, 70 μM",30.1470%
same,IC50,"Table 2, linear trend from percent survival vs. concentration data of Table 1, read-out: Calculated IC 50 (uM concentration)",63.3 µM
same,Average Absorbance,"Table 3, 10 μM",2.4665
same,Percent Survival,"Table 3, 10 μM",100.9661%
same,Average Absorbance,"Table 3, 20 μM",2.4556
same,Percent Survival,"Table 3, 20 μM",100.5199%
same,Average Absorbance,"Table 3, 30 μM",2.2686
same,Percent Survival,"Table 3, 30 μM",92.8650%
same,Average Absorbance,"Table 3, 40 μM",1.7575
same,Percent Survival,"Table 3, 40 μM",71.9432%
same,Average Absorbance,"Table 3, 50 μM",1.2828
same,Percent Survival,"Table 3, 50 μM",52.5114%
same,Average Absorbance,"Table 3, 60 μM",0.7971
same,Percent Survival,"Table 3, 60 μM",32.6293%
same,Average Absorbance,"Table 3, 70 μM",0.6718
same,Percent Survival,"Table 3, 70 μM",27.5001%
same,Average Absorbance,"Table 4, 10 μM",0.5299
same,Percent Survival,"Table 4, 10 μM",83.1%
same,Average Absorbance,"Table 4, 20 μM",0.6575
same,Percent Survival,"Table 4, 20 μM",103.1%
same,Average Absorbance,"Table 4, 30 μM",0.497
same,Percent Survival,"Table 4, 30 μM",77.95%
same,Average Absorbance,"Table 4, 40 μM",0.4763
same,Percent Survival,"Table 4, 40 μM",74.69%
same,Average Absorbance,"Table 4, 50 μM",0.3644
same,Percent Survival,"Table 4, 50 μM",57.14%
same,Average Absorbance,"Table 4, 60 μM",0.2814
same,Percent Survival,"Table 4, 60 μM",44.13%
same,Average Absorbance,"Table 4, 70 μM",0.1854
same,Percent Survival,"Table 4, 70 μM",29.07%
same,Average Absorbance,"Table 6, 10 μM",2.3196
same,Percent Survival,"Table 6, 10 μM",98.2423%
same,Average Absorbance,"Table 6, 20 μM",2.3228
same,Percent Survival,"Table 6, 20 μM",98.3779%
same,Average Absorbance,"Table 6, 30 μM",2.3526
same,Percent Survival,"Table 6, 30 μM",99.6400%
same,Average Absorbance,"Table 6, 40 μM",2.1315
same,Percent Survival,"Table 6, 40 μM",90.2757%
same,Average Absorbance,"Table 6, 50 μM",1.8447
same,Percent Survival,"Table 6, 50 μM",78.1288%
same,Average Absorbance,"Table 6, 60 μM",1.1039
same,Percent Survival,"Table 6, 60 μM",46.7536%
same,Average Absorbance,"Table 6, 70 μM",0.7118
same,Percent Survival,"Table 6, 70 μM",30.1470%
same,Average Absorbance,"Table 8, 10 μM",2.4665
same,Percent Survival,"Table 8, 10 μM",100.9661%
same,Average Absorbance,"Table 8, 20 μM",2.4556
same,Percent Survival,"Table 8, 20 μM",100.5199%
same,Average Absorbance,"Table 8, 30 μM",2.2686
same,Percent Survival,"Table 8, 30 μM",92.8650%
same,Average Absorbance,"Table 8, 40 μM",1.7575
same,Percent Survival,"Table 8, 40 μM",71.9432%
same,Average Absorbance,"Table 8, 50 μM",1.2828
same,Percent Survival,"Table 8, 50 μM",52.5114%
same,Average Absorbance,"Table 8, 60 μM",0.7971
same,Percent Survival,"Table 8, 60 μM",32.6293%
same,Average Absorbance,"Table 8, 70 μM",0.6718
same,Percent Survival,"Table 8, 70 μM",27.5001%
same,Average Absorbance,"Table 9, 10 μM",0.5299
same,Percent Survival,"Table 9, 10 μM",83.1%
same,Average Absorbance,"Table 9, 20 μM",0.6575
same,Percent Survival,"Table 9, 20 μM",103.1096%
same,Average Absorbance,"Table 9, 30 μM",0.497
same,Percent Survival,"Table 9, 30 μM",77.95%
same,Average Absorbance,"Table 9, 40 μM",0.4763
same,Percent Survival,"Table 9, 40 μM",74.69%
same,Average Absorbance,"Table 9, 50 μM",0.3644
same,Percent Survival,"Table 9, 50 μM",57.14%
same,Average Absorbance,"Table 9, 60 μM",0.2814
same,Percent Survival,"Table 9, 60 μM",44.13%
same,Average Absorbance,"Table 9, 70 μM",0.1854
same,Percent Survival,"Table 9, 70 μM",29.07%
CC(=O)N[C@H]1C(O)O[C@H](CO)[C@@H](O)[C@@H]1O (some centres unmarked) [N-acetyl glucosamine],Average Absorbance,"Table 9, 10 μM",0.6179
same,Percent Survival,"Table 9, 10 μM",96.89%
same,Average Absorbance,"Table 9, 20 μM",0.378
same,Percent Survival,"Table 9, 20 μM",59.27%
same,Average Absorbance,"Table 9, 30 μM",0.1735
same,Percent Survival,"Table 9, 30 μM",27.21%
same,Average Absorbance,"Table 9, 40 μM",0.02397
same,Percent Survival,"Table 9, 40 μM",3.758%
same,Average Absorbance,"Table 9, 50 μM",0.0397
same,Percent Survival,"Table 9, 50 μM",6.226%
same,Average Absorbance,"Table 9, 60 μM",0.05523
same,Percent Survival,"Table 9, 60 μM",8.662%
same,Average Absorbance,"Table 9, 70 μM",0.01897
same,Percent Survival,"Table 9, 70 μM",2.974%

# From US7759510B2, “Platinum complexes and methods of use” (University of South Florida, priority 2003, dated 2010)
